Laboratory results as given in the kinase profiling compilation of Christmann-Franck et al. (2016).

How the values were obtained:
Test in all cases: radiometric filter-binding kinase assay
Settings in all cases: compound 100.0 µM
[1] = tested on: AKT2 (human), P31751 [S474D]
AURKA (human) = AURKA (human) (UniProt O14965)
AURKB (human) = AURKB (human) (UniProt Q96GD4)
BTK (human) = BTK (human) (UniProt Q06187)
CHEK2 (human) = CHEK2 (human) (UniProt O96017)
CLK2 (human) = CLK2 (human) (UniProt P49760)
CaMK1 (human) = CaMK1 (human) (UniProt Q14012)
DYRK1A (human) = DYRK1A (human) (UniProt Q13627)
DYRK2 (human) = DYRK2 (human) (UniProt Q92630)
DYRK3 (human) = DYRK3 (human) (UniProt O43781)
ERBB4 (human) = ERBB4 (human) (UniProt Q15303)
FGFR1 (human) = FGFR1 (human) (UniProt P11362)
FLT1 (human) = FLT1 (human) (UniProt P17948)
Chain of FLT1 (human) (P17948 whole entry, looked up): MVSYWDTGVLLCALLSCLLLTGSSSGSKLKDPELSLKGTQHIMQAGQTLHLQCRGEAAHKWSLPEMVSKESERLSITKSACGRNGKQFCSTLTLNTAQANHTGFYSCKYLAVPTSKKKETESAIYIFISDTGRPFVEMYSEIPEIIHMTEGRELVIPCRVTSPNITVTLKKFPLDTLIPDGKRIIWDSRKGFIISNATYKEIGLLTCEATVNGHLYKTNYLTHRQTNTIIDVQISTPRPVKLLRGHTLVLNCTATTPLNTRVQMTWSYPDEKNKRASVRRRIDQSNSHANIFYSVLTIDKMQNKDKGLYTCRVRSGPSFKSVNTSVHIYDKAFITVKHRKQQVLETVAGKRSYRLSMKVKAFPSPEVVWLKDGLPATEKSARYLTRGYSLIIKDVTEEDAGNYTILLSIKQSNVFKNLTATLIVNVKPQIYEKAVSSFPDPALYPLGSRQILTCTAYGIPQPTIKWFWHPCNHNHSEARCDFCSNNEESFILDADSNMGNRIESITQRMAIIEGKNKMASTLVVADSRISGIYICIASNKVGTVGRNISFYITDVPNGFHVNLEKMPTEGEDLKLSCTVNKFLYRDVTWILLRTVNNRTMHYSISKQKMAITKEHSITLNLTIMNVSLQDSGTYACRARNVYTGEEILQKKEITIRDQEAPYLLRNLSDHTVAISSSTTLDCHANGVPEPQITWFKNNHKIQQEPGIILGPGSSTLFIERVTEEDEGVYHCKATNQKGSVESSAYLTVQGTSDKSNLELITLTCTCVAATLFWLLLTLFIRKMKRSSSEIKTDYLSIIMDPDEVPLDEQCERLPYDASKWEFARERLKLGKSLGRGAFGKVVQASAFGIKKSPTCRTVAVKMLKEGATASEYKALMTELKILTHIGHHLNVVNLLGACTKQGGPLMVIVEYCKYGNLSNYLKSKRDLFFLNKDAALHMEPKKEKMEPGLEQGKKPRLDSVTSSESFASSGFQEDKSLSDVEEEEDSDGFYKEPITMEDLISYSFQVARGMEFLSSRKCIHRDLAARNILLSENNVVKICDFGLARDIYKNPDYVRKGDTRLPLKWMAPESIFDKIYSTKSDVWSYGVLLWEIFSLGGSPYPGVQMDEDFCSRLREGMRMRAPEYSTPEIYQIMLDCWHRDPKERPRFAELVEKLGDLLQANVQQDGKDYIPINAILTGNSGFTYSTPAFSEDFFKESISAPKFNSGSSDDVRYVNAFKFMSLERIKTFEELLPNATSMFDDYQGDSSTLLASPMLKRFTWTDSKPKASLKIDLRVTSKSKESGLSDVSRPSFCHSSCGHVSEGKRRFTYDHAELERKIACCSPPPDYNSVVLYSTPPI

GSK3B (human) = GSK3B (human) (UniProt P49841)
HIPK2 (human) = HIPK2 (human) (UniProt Q9H2X6)
IKBKE (human) = IKBKE (human) (UniProt Q14164)
Chain of IKBKE (human) (Q14164 whole entry, looked up): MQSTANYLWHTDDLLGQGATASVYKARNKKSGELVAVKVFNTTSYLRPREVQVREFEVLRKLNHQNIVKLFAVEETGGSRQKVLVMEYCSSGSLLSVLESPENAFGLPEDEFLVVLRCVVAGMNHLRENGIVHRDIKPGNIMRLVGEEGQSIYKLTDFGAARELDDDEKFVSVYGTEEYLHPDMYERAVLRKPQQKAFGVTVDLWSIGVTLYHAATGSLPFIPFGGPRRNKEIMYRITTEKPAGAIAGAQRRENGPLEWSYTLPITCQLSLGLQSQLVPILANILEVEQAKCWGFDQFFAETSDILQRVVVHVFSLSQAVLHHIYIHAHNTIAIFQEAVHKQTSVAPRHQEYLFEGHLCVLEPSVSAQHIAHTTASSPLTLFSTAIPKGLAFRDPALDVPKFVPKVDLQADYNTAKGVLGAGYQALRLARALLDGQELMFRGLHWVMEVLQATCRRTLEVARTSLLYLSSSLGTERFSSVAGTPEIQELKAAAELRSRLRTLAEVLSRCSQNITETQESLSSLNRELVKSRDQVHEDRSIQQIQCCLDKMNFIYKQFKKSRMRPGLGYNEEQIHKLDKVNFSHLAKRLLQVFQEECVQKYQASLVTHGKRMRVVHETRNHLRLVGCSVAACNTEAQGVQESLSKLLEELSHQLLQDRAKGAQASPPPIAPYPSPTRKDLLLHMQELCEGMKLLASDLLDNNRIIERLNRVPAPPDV

INSR (human) = INSR (human) (UniProt P06213)
INSRR (human) = INSRR (human) (UniProt P14616)
MAP3K11 (human) = MAP3K11 (human) (UniProt Q16584)
MAP3K9 (human) = MAP3K9 (human) (UniProt P80192)
MAPK1 (human) = MAPK1 (human) (UniProt P28482)
MAPK10 (human) = MAPK10 (human) (UniProt P53779)
MAPK11 (human) = MAPK11 (human) (UniProt Q15759)
MAPK12 (human) = MAPK12 (human) (UniProt P53778)
MAPK13 (human) = MAPK13 (human) (UniProt O15264)
MAPK14 (human) = MAPK14 (human) (UniProt Q16539)
MAPK3 (human) = MAPK3 (human) (UniProt P27361)
MAPK8 (human) = MAPK8 (human) (UniProt P45983)
MAPK9 (human) = MAPK9 (human) (UniProt P45984)
MAPKAPK2 (human) = MAPKAPK2 (human) (UniProt P49137)
MAPKAPK3 (human) = MAPKAPK3 (human) (UniProt Q16644)
MARK2 (human) = MARK2 (human) (UniProt Q7KZI7)
Chain of MARK2 (human) (Q7KZI7 whole entry, looked up): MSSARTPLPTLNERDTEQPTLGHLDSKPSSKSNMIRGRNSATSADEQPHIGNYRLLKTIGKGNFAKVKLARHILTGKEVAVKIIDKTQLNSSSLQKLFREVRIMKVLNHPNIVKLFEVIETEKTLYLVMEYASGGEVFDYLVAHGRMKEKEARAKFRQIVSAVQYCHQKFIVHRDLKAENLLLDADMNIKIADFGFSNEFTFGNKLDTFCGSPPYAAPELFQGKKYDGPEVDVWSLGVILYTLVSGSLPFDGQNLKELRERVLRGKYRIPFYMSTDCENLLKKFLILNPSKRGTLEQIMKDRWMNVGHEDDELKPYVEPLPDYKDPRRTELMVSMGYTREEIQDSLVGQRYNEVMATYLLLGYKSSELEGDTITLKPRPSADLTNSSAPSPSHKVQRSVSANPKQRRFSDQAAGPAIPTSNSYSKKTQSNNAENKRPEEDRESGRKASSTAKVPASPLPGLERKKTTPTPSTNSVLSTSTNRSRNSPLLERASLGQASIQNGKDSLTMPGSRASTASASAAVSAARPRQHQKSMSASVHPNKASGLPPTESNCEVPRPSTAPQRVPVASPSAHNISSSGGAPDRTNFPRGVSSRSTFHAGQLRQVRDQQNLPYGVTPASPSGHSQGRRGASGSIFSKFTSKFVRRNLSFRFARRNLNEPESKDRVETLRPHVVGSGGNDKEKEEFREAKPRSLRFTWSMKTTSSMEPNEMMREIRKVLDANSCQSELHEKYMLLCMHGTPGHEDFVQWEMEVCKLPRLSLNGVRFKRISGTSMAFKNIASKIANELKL

MINK1 (human) = MINK1 (human) (UniProt Q8N4C8)
NEK2 (human) = NEK2 (human) (UniProt P51955)
NUAK1 (human) = NUAK1 (human) (UniProt O60285)
PIM1 (human) = PIM1 (human) (UniProt P11309)
PIM3 (human) = PIM3 (human) (UniProt Q86V86)
PLK1 (human) = PLK1 (human) (UniProt P53350)
Chain of PLK1 (human) (P53350 whole entry, looked up): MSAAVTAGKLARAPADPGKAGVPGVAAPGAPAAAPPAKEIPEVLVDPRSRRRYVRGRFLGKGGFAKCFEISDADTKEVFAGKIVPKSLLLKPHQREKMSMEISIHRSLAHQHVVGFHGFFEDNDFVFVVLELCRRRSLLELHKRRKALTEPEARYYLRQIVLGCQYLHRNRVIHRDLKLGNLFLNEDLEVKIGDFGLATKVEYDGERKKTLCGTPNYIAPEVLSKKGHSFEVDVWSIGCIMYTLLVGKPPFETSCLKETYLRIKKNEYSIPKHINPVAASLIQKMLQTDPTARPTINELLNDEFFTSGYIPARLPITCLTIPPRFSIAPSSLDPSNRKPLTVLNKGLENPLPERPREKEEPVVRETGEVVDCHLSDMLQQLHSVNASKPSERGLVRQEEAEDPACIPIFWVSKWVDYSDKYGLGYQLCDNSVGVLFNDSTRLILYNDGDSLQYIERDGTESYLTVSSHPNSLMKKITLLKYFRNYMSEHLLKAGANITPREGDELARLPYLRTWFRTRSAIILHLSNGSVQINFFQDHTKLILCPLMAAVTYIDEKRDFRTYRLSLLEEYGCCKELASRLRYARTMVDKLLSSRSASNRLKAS

RIPK2 (human) = RIPK2 (human) (UniProt O43353)
RPS6KA3 KD1 KD2 (human) = RPS6KA3 KD1 KD2 (human) (UniProt P51812)
Chain of RPS6KA3 KD1 KD2 (human) (P51812 whole entry, looked up): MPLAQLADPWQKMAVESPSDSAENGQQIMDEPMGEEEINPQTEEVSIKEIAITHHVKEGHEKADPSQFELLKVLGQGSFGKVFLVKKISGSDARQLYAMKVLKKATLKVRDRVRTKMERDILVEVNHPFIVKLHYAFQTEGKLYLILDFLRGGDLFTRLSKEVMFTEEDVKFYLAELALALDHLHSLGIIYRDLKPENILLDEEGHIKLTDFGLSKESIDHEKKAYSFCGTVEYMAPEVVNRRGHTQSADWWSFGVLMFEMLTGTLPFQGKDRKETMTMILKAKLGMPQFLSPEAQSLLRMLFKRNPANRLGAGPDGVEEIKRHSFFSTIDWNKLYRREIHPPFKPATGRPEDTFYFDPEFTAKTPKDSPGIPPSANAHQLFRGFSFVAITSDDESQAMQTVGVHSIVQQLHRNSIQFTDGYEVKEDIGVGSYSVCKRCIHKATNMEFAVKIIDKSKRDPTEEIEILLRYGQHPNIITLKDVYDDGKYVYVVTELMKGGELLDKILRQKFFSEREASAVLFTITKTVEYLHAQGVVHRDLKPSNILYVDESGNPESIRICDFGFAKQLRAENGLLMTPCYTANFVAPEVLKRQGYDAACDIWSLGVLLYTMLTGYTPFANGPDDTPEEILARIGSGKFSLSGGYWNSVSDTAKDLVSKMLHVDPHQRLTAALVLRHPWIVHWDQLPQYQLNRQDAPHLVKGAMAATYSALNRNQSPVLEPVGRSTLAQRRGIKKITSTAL

TTK (human) = TTK (human) (UniProt P33981)

Chain of BTK (human) (Q06187 whole entry, looked up): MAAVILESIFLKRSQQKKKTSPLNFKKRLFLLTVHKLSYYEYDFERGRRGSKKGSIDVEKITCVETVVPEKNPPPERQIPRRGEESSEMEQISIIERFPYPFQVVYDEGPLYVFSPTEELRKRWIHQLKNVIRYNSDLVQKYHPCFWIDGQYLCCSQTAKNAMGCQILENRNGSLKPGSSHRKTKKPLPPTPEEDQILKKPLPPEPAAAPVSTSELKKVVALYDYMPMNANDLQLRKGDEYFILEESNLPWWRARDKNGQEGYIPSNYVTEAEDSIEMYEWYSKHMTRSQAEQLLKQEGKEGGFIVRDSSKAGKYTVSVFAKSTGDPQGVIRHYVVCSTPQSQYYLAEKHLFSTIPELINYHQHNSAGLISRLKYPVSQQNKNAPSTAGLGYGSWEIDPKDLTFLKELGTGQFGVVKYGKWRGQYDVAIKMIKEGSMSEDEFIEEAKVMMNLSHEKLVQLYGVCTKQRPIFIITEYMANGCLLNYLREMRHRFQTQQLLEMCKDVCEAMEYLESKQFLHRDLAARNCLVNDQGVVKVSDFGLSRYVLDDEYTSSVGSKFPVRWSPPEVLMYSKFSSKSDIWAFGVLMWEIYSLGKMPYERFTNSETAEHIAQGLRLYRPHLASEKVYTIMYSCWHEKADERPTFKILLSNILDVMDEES

residual activity [1]: 8% | residual activity (AURKA (human)): 7% | residual activity (AURKB (human)): 5% | residual activity (BTK (human)): 21% | residual activity (CHEK2 (human)): 41% | residual activity (CLK2 (human)): 18% | residual activity (CaMK1 (human)): 3% | residual activity (DYRK1A (human)): 18% | residual activity (DYRK2 (human)): 23% | residual activity (DYRK3 (human)): 23% | residual activity (ERBB4 (human)): 19% | residual activity (FGFR1 (human)): 29% | residual activity (FLT1 (human)): 12% | residual activity (GSK3B (human)): 78% | residual activity (HIPK2 (human)): 7% | residual activity (IKBKE (human)): 9% | residual activity (INSR (human)): 99% | residual activity (INSRR (human)): 26% | residual activity (MAP3K11 (human)): 5% | residual activity (MAP3K9 (human)): 4% | residual activity (MAPK1 (human)): 73% | residual activity (MAPK10 (human)): 80% | residual activity (MAPK11 (human)): 69% | residual activity (MAPK12 (human)): 60% | residual activity (MAPK13 (human)): 65% | residual activity (MAPK14 (human)): 36% | residual activity (MAPK3 (human)): 19% | residual activity (MAPK8 (human)): 83% | residual activity (MAPK9 (human)): 88% | residual activity (MAPKAPK2 (human)): 8% | residual activity (MAPKAPK3 (human)): 8% | residual activity (MARK2 (human)): 66% | residual activity (MINK1 (human)): 2% | residual activity (NEK2 (human)): 19% | residual activity (NUAK1 (human)): 14% | residual activity (PIM1 (human)): 13% | residual activity (PIM3 (human)): 6% | residual activity (PLK1 (human)): 90% | residual activity (RIPK2 (human)): 23% | residual activity (RPS6KA3 KD1 KD2 (human)): 11% | residual activity (TTK (human)): 44%
Structure (SMILES): Cc1cccc(Nc2nc(-c3sc(N)nc3C)cs2)n1
